This note sets out measurements from US11485737B2, “Diaryl substituted 5,5-fused ring compounds as C5aR inhibitors” (CHEMOCENTRYX, INC., priority 2017, dated 2022).

The assay concerns the target T1, C5aR (Homo sapiens, UniProt P21730).
T1 construct: U937 cells are a monocytic cell line which express C5aR; host or cells: U937 cells (cAMP-treated overnight)
T1 sequence (P21730 1-350): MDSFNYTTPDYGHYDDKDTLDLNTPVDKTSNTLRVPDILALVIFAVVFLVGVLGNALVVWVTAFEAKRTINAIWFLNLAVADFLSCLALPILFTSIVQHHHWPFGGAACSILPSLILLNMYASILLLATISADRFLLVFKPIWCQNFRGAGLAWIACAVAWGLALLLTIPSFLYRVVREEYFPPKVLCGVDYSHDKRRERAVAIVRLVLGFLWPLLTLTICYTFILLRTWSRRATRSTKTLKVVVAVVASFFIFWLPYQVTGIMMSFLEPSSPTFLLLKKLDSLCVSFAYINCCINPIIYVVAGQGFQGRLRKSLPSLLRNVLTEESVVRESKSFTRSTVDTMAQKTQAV
The assay is described as follows: Chemotaxis assay using U937 cells (C5a-induced migration). The format is cell-based. As to conditions: chemotaxis (migration) of U937 cells towards C5a; read-out: Mig IC50. The protocol: U937 cells are a monocytic cell line which express C5aR, and are available from ATCC (VA). These cells were cultured as a suspension in RPMI-1640 medium supplemented with 2 mM L-glutamine, 1.5 g/L sodium bicarbonate, 4.5 g/L glucose, 10 mM HEPES, 1 mM sodium pyruvate, and 10% FBS. Cells were grown under 5% CO2/95% air, 100% humidity at 37° C. and subcultured twice weekly at 1:6 (cells were cultured at a density range of 1×10^5 to 2×10^6 cells/mL) and harvested at 1×10^6 cells/mL. Prior to assay, cells are treated overnight with 0.5 mM of cyclic AMP (Sigma, OH) and washed once prior to use. cAMP treated U937 cells can be used in C5aR ligand binding and functional assays.
Optionally, compounds may be further assayed for their ability to inhibit chemotaxis in cells. Chemotaxis assays are performed using 5 μm pore polycarbonate, polyvinylpyrrolidone-coated filters in 96-well chemotaxis chambers (Neuroprobe; Gaithersburg, Md.) using chemotaxis buffer (Hank's balanced salt solution (HBSS) and 1% FBS). C5aR ligands (i.e., C5a, R&D Systems; Minneapolis, Minn.) are use to evaluate compound mediated inhibition of C5aR mediated migration. Other chemokines (i.e., SDF-1α; R&D Systems; Minneapolis, Minn.) are used as specificity controls. The lower chamber is loaded with 29 μl of chemokine (i.e., 0.03 nM C5a) and varying amounts of compound; the top chamber contains 100,000 U937 or neutrophil cells in 20 μl. The chambers are incubated 1.5 hours at 37° C., and the number of cells in the lower chamber quantified either by direct cell counts in five high powered fields per well or by the CyQuant assay (Molecular Probes), a fluorescent dye method that measures nucleic acid content and microscopic observation.
The compounds in Table 1, below, were prepared using the methods described above. Characterization data is provided for each compound listed. Activity is provided as follows for the chemotaxis assay using U937 cells as described herein (Example 7): +, 500 nM<IC50; ++, 50 nM<IC50<500 nM; +++, 5 nM<IC50<50 nM; and ++++, IC50<5 nM.

In the case of `Cc1ccc(C(C)(C)C)cc1N1Cc2nn(-c3c(C)cccc3OCC(C)C)c(-c3ccc(C(N)=O)cc3)c2C1` [Compound 1.041], the IC50 (commonly the point on the concentration scale where inhibition reaches its midpoint) was less than 5 nM.
The value for `Cc1ccc(C(C)(C)C)cc1N1Cc2nn(-c3c(C)cccc3C)c(-c3ccc(C(=O)NC4CCCC4)cc3)c2C1` [Compound 1.042] was more than 500 nM; that for `Cc1ccc(C(C)(C)C)cc1N1Cc2nn(-c3c(C)cccc3C)c(-c3ccc(C(=O)O)cc3)c2C1` [Compound 1.043] was more than 500 nM.
Next, `COc1cccc(C)c1-n1nc2c(c1-c1ccc(NC(N)=O)cc1)CN(c1ccccc1C(C)C)C2` [Compound 1.044]: 50 to 500 nM; `Cc1cccc(C)c1-n1nc2c(c1-c1ccc(NC(N)=O)cc1)CN(c1ccccc1C(C)C)C2` [Compound 1.045]: 50 to 500 nM; `Cc1cccc(C)c1-n1nc2c(c1-c1ccc(N)cc1)CN(c1ccccc1C(C)C)C2` [Compound 1.046]: 50 to 500 nM.
The value for `Cc1ccc(C(C)(C)C)cc1N1Cc2nn(-c3c(C)cccc3C)c(-c3ccc(C(N)=O)cc3)c2C1` [Compound 1.047] was less than 5 nM.
Consider `Cc1ccc(C(C)(C)C)cc1N1Cc2nn(-c3c(C)cccc3C)c(-c3ccc(C(C)(C)O)cc3)c2C1` [Compound 1.048], for which the IC50 lay within 50 to 500 nM.
The value for `Cc1ccc(C(C)(C)C)cc1N1Cc2nn(-c3c(C)cccc3C)c(-c3ccc(NC(N)=O)cc3)c2C1` [Compound 1.049] was 50 to 500 nM; that for `CNc1ccc(-c2c3c(nn2-c2c(C)cccc2C)CN(c2cc(C(C)(C)C)ccc2C)C3)cc1` [Compound 1.050] was more than 500 nM; that for `Cc1ccc(C(C)(C)C)cc1N1Cc2nn(-c3c(C)cccc3C)c(-c3ccc(N)cc3)c2C1` [Compound 1.051] was less than 5 nM.
The value for `COc1cccc(C)c1-n1nc2c(c1-c1ccc(NC(N)=O)cc1)CN(c1cc(C(C)(C)C)ccc1C)C2` [Compound 1.052] was more than 500 nM; that for `CCCOc1cccc(C)c1-n1nc2c(c1-c1ccc(N)cc1)CN(c1cc(C(C)(C)C)ccc1C)C2` [Compound 1.053] was 5 to 50 nM.
Take `CCOc1cccc(C)c1-n1nc2c(c1-c1ccc(N)cc1)CN(c1cc(C(C)(C)C)ccc1C)C2` [Compound 1.054]: the IC50 was 5 to 50 nM.
Regarding `COc1cccc(C)c1-n1nc2c(c1-c1ccc(N)cc1)CN(c1cc(C(C)(C)C)ccc1C)C2` [Compound 1.055], the IC50 was 5 to 50 nM.
